The term EC90 denotes the concentration at which the effect reaches the 90% level.

The test system of this experiment is Influenza A virus (A/WSN/1933(H1N1)). Briefly: microbe, parasite or virus in culture. The settings on record: MDCK, 24 h with compound, then 2 h drug-free medium. Format: cell-based.
Consider `CCOc1c(F)cc(CNC(=O)c2cc(C3CC3)nn2C)cc1Cl` [Compound 43, N-(3-chloro-4-ethoxy-5-fluorobenzyl)-3-cyclopropyl-1-methyl-1H-pyrazole-5-carboxamide], for which the EC90 was 400 nM.

For the molecule `CCOc1ccc(CNC(=O)c2cc(C(C)(C)C)nn2C)cc1Br` [Compound 16, N-(3-bromo-4-ethoxybenzyl)-3-(tert-butyl)-1-methyl-1H-pyrazole-5-carboxamide], the EC90 came out at 1000 nM.

As to `CCOc1cccc(CNC(=O)c2cc(C3CC3)nn2C)c1OC(F)F` [Compound 38, 3-cyclopropyl-N-(2-(difluoromethoxy)-3-ethoxybenzyl)-1-methyl-1H-pyrazole-5-carboxamide], the 90% effect concentration (EC90) was determined as 100 nM.

On to `COc1cccc(CNC(=O)c2cc(C(C)C)nn2C)c1OC` [Compound 32, N-(2,3-dimethoxybenzyl)-3-isopropyl-1-methyl-1H-pyrazole-5-carboxamide], for which the 90% effect concentration (EC90) was found to be 1000 nM.

Regarding `CCOc1cccc(CNC(=O)c2cc(C(C)(C)C)nn2C)c1OC(F)F` [Compound 37, 3-(tert-butyl)-N-(2-(difluoromethoxy)-3-ethoxybenzyl)-1-methyl-1H-pyrazole-5-carboxamide], the EC90 is 100 nM.

For the molecule `COc1cc(CNC(=O)c2cc(C3CC3)nn2C)ccc1Cl` [Compound 6, N-(4-chloro-3-methoxybenzyl)-3-cyclopropyl-1-methyl-1H-pyrazole-5-carboxamide], the EC90 turned out to be 1500 nM.

Take `COc1cc(CNC(=O)c2cc(C(C)(C)C)nn2C)ccc1Cl` [Compound 5, 3-(tert-butyl)-N-(4-chloro-3-methoxybenzyl)-1-methyl-1H-pyrazole-5-carboxamide]: the EC90 stood at 1500 nM.

For the molecule `COc1ccc(CNC(=O)c2cc(C(C)(C)C)nn2C)cc1Cl` [Compound 12, 3-(tert-butyl)-N-(3-chloro-4-methoxybenzyl)-1-methyl-1H-pyrazole-5-carboxamide], the EC90 amounted to 1800 nM.

For `COc1cccc(CNC(=O)c2cc(C(C)(C)C)nn2C)c1O` [Compound 31, 3-(tert-butyl)-N-(2-hydroxy-3-methoxybenzyl)-1-methyl-1H-pyrazole-5-carboxamide], the EC90 came out at 1000 nM.

For `CCCOc1c(Cl)cc(CNC(=O)c2cc(C(C)C)nn2C)cc1OC` [Compound 42, N-(3-chloro-4-propoxy-5-methoxybenzyl)-3-isopropyl-1-methyl-1H-pyrazole-5-carboxamide], the EC90 was determined as 200 nM.

On to `Cn1nc(C2CC2)cc1C(=O)NCc1cccc(C(F)(F)F)c1F` [Compound 1, 3-cyclopropyl-N-(2-fluoro-3-(trifluoromethyl)benzyl)-1-methyl-1H-pyrazole-5-carboxamide], for which the EC90 amounted to 400 nM.

`Cn1nc(C2CC2)cc1C(=O)NCc1cccc(OC(F)(F)F)c1F` [Compound 8, 3-cyclopropyl-N-(2-fluoro-3-(trifluoromethoxy)benzyl)-1-methyl-1H-pyrazole-5-carboxamide]: the EC90 was determined as 1500 nM.

In the case of `CC(C)c1cc(C(=O)NCc2cccc(OC(F)(F)F)c2F)n(C)n1` [Compound 9, N-(2-fluoro-3-(trifluoromethoxy)benzyl)-3-isopropyl-1-methyl-1H-pyrazole-5-carboxamide], the EC90 turned out to be 400 nM.

For `COc1c(Br)cccc1CNC(=O)c1cc(C2CC2)nn1C` [Compound 18, N-(3-bromo-2-methoxybenzyl)-3-cyclopropyl-1-methyl-1H-pyrazole-5-carboxamide], the EC90 was found to be 1500 nM.

`Cn1nc(C(C)(C)C)cc1C(=O)NCc1cccc(OC(F)(F)F)c1F` [Compound 7, 3-(tert-butyl)-N-(2-fluoro-3-(trifluoromethoxy)benzyl)-1-methyl-1H-pyrazole-5-carboxamide]: the EC90 stood at 1800 nM.

As to `Cc1c(CNC(=O)c2cc(C3CC3)nn2C)cccc1C(F)(F)F` [Compound 22, 3-cyclopropyl-1-methyl-N-(2-methyl-3-(trifluoromethyl)benzyl)-1H-pyrazole-5-carboxamide], the EC90 was 300 nM.

Consider `Cn1nc(C2CC2)cc1C(=O)NCc1ccc(OCC2CC2)c(Cl)c1` [Compound 14, N-(3-chloro-4-(cyclopropylmethoxy)benzyl)-3-cyclopropyl-1-methyl-1H-pyrazole-5-carboxamide], for which the EC90 came out at 400 nM.

As to `CCCOc1c(CNC(=O)c2cc(C3CC3)nn2C)cccc1OC` [Compound 33, 3-cyclopropyl-N-(3-methoxy-2-propoxybenzyl)-1-methyl-1H-pyrazole-5-carboxamide], the EC90 stood at 1500 nM.

On to `CC(C)c1cc(C(=O)NCc2cccc(C(F)(F)F)c2F)n(C)n1` [Compound 2, N-(2 fluoro-3-(trifluoromethyl)benzyl)-3-isopropyl-1-methyl-1H pyrazole-5-carboxamide], for which the EC90 stood at 100 nM.

As for `CCCOc1ccc(CNC(=O)c2cc(C(C)C)nn2C)cc1Cl` [Compound 13, N-(3-chloro-4-propoxybenzyl)-3-isopropyl-1-methyl-1H-pyrazole-5-carboxamide], the EC90 was 400 nM.

Consider `Cc1cccc(CNC(=O)c2cc(C3CC3)nn2C)c1C` [Compound 20, 3-cyclopropyl-N-(2,3-dimethylbenzyl)-1-methyl-1H-pyrazole-5-carboxamide], for which the EC90 came to 1500 nM.

Consider `COc1cc(CNC(=O)c2cc(C(C)(C)C)nn2C)ccc1C` [Compound 27, 3-(tert-butyl)-N-(3-methoxy-4-methylbenzyl)-1-methyl-1H-pyrazole-5-carboxamide], for which the EC90 is 1500 nM.

For `Cn1nc(C2CC2)cc1C(=O)NCc1cccc(C(F)(F)F)c1Cl` [Compound 3, N-(2-chloro-3-(trifluoromethyl)benzyl)-3-cyclopropyl-1-methyl-1H-pyrazole-5-carboxamide], the concentration for an effect of 90% (EC90) turned out to be 1100 nM.

On to `Cc1ccc(CNC(=O)c2cc(C(C)(C)C)nn2C)cc1Cl` [Compound 11, 3-(tert-butyl)-N-(3-chloro-4-methylbenzyl)-1-methyl-1H-pyrazole-5-carboxamide], for which the EC90 worked out at 1500 nM.

Take `CCOc1ccc(CNC(=O)c2cc(C(C)C)nn2C)cc1Br` [Compound 17, N-(3-bromo-4-ethoxybenzyl)-3-isopropyl-1-methyl-1H-pyrazole-5-carboxamide]: the EC90 came to 400 nM.

For `Cc1cc(CNC(=O)c2cc(C(C)C)nn2C)cc(C)c1OC(F)F` [Compound 40, N-(4-(difluoromethoxy)-3,5-dimethylbenzyl)-3-isopropyl-1-methyl-1H-pyrazole-5-carboxamide], the EC90 worked out at 400 nM.

On to `CC(C)c1cc(C(=O)NCc2ccc(OCC3CC3)c(Cl)c2)n(C)n1` [Compound 15, N-(3-chloro-4-(cyclopropylmethoxy)benzyl)-3-isopropyl-1-methyl-1H-pyrazole-5-carboxamide], for which the 90% effect concentration (EC90) turned out to be 400 nM.

On to `COc1c(CNC(=O)c2cc(C3CC3)nn2C)cccc1C(F)(F)F` [Compound 24, 3-cyclopropyl-N-(2-methoxy-3-(trifluoromethyl)benzyl)-1-methyl-1H-pyrazole-5-carboxamide], for which the EC90 was 200 nM.

On to `COc1c(CNC(=O)c2cc(C(C)(C)C)nn2C)cccc1OC(F)(F)F` [Compound 35, 3-(tert-butyl)-N-(2-methoxy-3-(trifluoromethoxy)benzyl)-1-methyl-1H-pyrazole-5-carboxamide], for which the EC90 worked out at 200 nM.

In the case of `CCOc1c(Br)cc(CNC(=O)c2cc(C3CC3)nn2C)cc1OC` [Compound 41, N-(3-bromo-4-ethoxy-5-methoxybenzyl)-3-cyclopropyl-1-methyl-1H-pyrazole-5-carboxamide], the EC90 came to 400 nM.

With `COc1ccc(CNC(=O)c2cc(C3CC3)nn2C)cc1C(F)(F)F` [Compound 26, 3-cyclopropyl-N-(4-methoxy-3-(trifluoromethyl)benzyl)-1-methyl-1H-pyrazole-5-carboxamide], the EC90 turned out to be 800 nM.

On to `CC(C)c1cc(C(=O)NCc2cccc(C(F)(F)F)c2Cl)n(C)n1` [Compound 4, N-(2-chloro-3-(trifluoromethyl)benzyl)-3-isopropyl-1-methyl-1H-pyrazole-5-carboxamide], for which the EC90 stood at 100 nM.

As to `Cn1nc(C2CC2)cc1C(=O)NCc1cccc(OCC2CC2)c1F` [Compound 10, 3-cyclopropyl-N-(3-(cyclopropylmethoxy)-2-fluorobenzyl)-1-methyl-1H-pyrazole-5-carboxamide], the EC90 was 100 nM.

On to `Cn1nc(C(C)(C)C)cc1C(=O)NCc1cccc(OC(F)(F)F)c1O` [Compound 34, 3-(tert-butyl)-N-(2-hydroxy-3-(trifluoromethoxy)benzyl)-1-methyl-1H-pyrazole-5-carboxamide], for which the EC90 was found to be 1200 nM.

Turning to `COc1cccc(CNC(=O)c2cc(C3CC3)nn2C)c1C` [Compound 28, 3-cyclopropyl-N-(3-methoxy-2-methylbenzyl)-1-methyl-1H-pyrazole-5-carboxamide], the EC90 came out at 1500 nM.

For `COc1c(CNC(=O)c2cc(C3CC3)nn2C)cccc1OC(F)(F)F` [Compound 36, 3-cyclopropyl-N-(2-methoxy-3-(trifluoromethoxy)benzyl)-1-methyl-1H-pyrazole-5-carboxamide], the EC90 was 100 nM.

For `Cn1nc(C(C)(C)C)cc1C(=O)NCc1cc(Cl)c2c(c1)OCCCO2` [Compound 45, 3-(tert-butyl)-N-((9-chloro-3,4-dihydro-2H-benzo[b][1,4]dioxepin-7-yl)methyl)-1-methyl-1H-pyrazole-5-carboxamide], the EC90 stood at 1000 nM.

With `COc1cccc(CNC(=O)c2cc(C(C)C)nn2C)c1C` [Compound 29, 3-isopropyl-N-(3-methoxy-2-methylbenzyl)-1-methyl-1H-pyrazole-5-carboxamide], the concentration for an effect of 90% (EC90) worked out at 1500 nM.

Consider `Cc1cccc(CNC(=O)c2cc(C3CC3)nn2C)c1OC(F)F` [Compound 21, 3-cyclopropyl-N-(2-(difluoromethoxy)-3-methylbenzyl)-1-methyl-1H-pyrazole-5-carboxamide], for which the EC90 amounted to 2000 nM.

Take `CCOc1cc(F)c(CNC(=O)c2cc(C3CC3)nn2C)cc1Cl` [Compound 44, N-(5-chloro-4-ethoxy-2-fluorobenzyl)-3-cyclopropyl-1-methyl-1H-pyrazole-5-carboxamide]: the EC90 stood at 400 nM.

Take `COc1c(CNC(=O)c2cc(C3CC3)nn2C)cccc1OCC1CCCC1` [Compound 39, N-(3-(cyclopentylmethoxy)-2-methoxybenzyl)-3-cyclopropyl-1-methyl-1H-pyrazole-5-carboxamide]: the EC90 turned out to be 100 nM.

The record behind these values is US10532980B2, “N-methyl pyrazoles” (Prosetta Antiviral, Inc., priority 2015, dated 2020).
